In US20120196918A1, “PREVENTING ISLET INFLAMMATION AND DYSFUNCTION AND MAINTAINING PROPER GLUCOSE LEVELS BY CONTROLLING eIF5A AND ITS HYPUSINATION” (priority 2009, published 2012):

Tests used:
C57BL/6J mouse islets = assay: GSIS and GSCa of islets isolated from siRNA-injected mice; assay type: cell-based
Experimental: To clarify this, islets were isolated from siRNA-injected mice and their function assessed in vitro. […] In order to further characterize this improvement in islet glucose responsiveness, glucose-stimulated Ca2+ mobilization (GSCa) studies were also performed. GSCa is a measure of islet glucose sensitivity that captures the dynamics of the islet glucose response, which is similar to GSIS (31). The GSCa, as measured by the change in fura-2 AM fluorescence ratio after glucose stimulation, was increased in si-eIF5A-treated islets compared to controls, reflecting the functional improvement seen in GSIS (FIG. 3D). This improved GSCa relative to controls persisted 48 and 72 hours post-isolation (data not shown).
A short cytokine exposure (4 h) was utilized to assess early impairment in islet function independent of islet cell death. […] As shown in the inset to FIG. 3E, eIF5A levels remained persistently lower in the si-eIF5A group even after cytokine exposure.
Cytokine and inhibitor incubation studies: For cytokine incubation assays, a 1000× cocktail of cytokines containing 5 μg/ml IL1β, 10 μg/ml TNFα, and 100 μg/ml IFNγ (all prepared in 0.1% BSA in Tris-buffered saline) was applied at 1× final concentration to groups of 50 islets or 1×10^6 INS-1 (832/13) cells for a total of 4 h at 37° C. For GC7 incubation studies, GC7 was prepared at a stock concentration of 125 mM in 10 mM acetic acid and applied to cultures of 50 islets or 1×10^6 INS-1 cells to obtain the final concentrations indicted in the figures. Where needed, GC7 was protected from amine oxidases in serum by addition of 1 mM aminoguanidine (Sigma). Cells were incubated with GC7 overnight (˜16 h) at 37° C. prior to analysis. Cells were exposed to Leptomycin B (Cayman Chemicals) for 3 hours; leptomycin B was prepared at a 1000× stock concentration of 20 μg/ml in ethanol.
GSCa imaging assays: Intracellular Ca^2+ ((Ca2+)i) was measured using the ratiometric Ca^2+ indicator fura-2 AM using a modification of previously published methods (79). The glucose-stimulated (Ca2+)i response (GSCa) was defined as the difference between ratio measurements (340/380 nm fluorescence) in 11 mM vs. 3 mM glucose. Data were analyzed with IP Lab's software version 4.0 (Scanalytics).
GSIS and IPGTT studies: For GSIS studies using isolated islets, approximately 50 islets or 1×10^6 INS-1 cells per condition were washed and incubated in Krebs-Ringer HEPES-buffered (KRB) solution for one hour at 37° C., and then placed in KRB solution containing 3 mM or 11 mM glucose for one hour. […] Blood glucose was measured from samples taken from the tail vein before intraperitoneal injection of 1 g glucose per kg mouse weight, and at 10, 20, 30, 60, 90, 120, and 180 minutes after glucose administration using an A1phaTrak® glucometer (Abbott).

iNOS = assay: Cytokine-induced iNOS protein in human islets (immunoblot); assay type: cell-based; details: incubation with GC7, cytokines
Text: eIF5A1 and eIF5A2 are the only proteins known to contain the unique amino acid hypusine at position 50. Hypusine is formed as a posttranslational modification of residue Lys50 in a reaction requiring spermidine and catalyzed by the sequential actions of the enzymes deoxyhypusine synthase (DHS) and deoxyhypusine hydroxylase (DOHH) (Chen, K Y, and Liu, A Y. Biochemistry and function of hypusine formation on eukaryotic initiation factor 5A. Biol Signals. 1997; 6(3):105-109). […] To further investigate the mechanism of eIF5A-regulated translation of Nos2, studies were performed following overnight incubation of cells with mimosine (an inhibitor of DOHH) and GC7 (an inhibitor of DHS). […]
Immunoblot and nitrite and iNOS assays: Whole cell extracts were resolved by electrophoresis on a 4-20% SDS-polyacrylamide gel, followed by immunoblot using anti-eIF5A1, anti-eIF5A2, anti-iNOS, anti-GFP, or anti-actin primary antibodies and fluorophore-labeled secondary antibodies. Immunoblots were visualized using the Li-Cor® Odyssey® system (Li-Cor Biosciences) and quantitated by scanning fluorometry using Odyssey Imaging v. […] Nitrite was quantitated by measuring nitric oxide-derived nitrite from INS-1 cell culture medium using the Griess reagent (Promega) according to the manufacturer's recommendations. iNOS activity was measured using a commercially available kit (Cayman).

[1] = system: eIF5A-Hyp binding to mRNA; assay: RNA immunoprecipitation with eIF5A antibody in cytokine-treated INS-1 cells; assay type: cell-based, rat; details: GC7 overnight, cytokines 4 h
Text: The retention of both Nos2 transcripts and eIF5A in the nucleus upon inhibition of hypusination is consistent with a close relationship between the two molecules, such that eIF5A may serve to chaperone Nos2 transcripts from the nucleus to the cytoplasm in response to cytokine stimulation. eIF5A-Hyp binds to RNAs that contain the consensus sequence 5′-AAAUGU-3′ (47), which is present in the Nos2 mRNA. To determine if eIF5A-Hyp binds Nos2 mRNA, RNA immunoprecipitation assays using INS-1 cell total RNA were performed. […] In contrast, no co-precipitation of other NFkB target and non-target genes was observed.
RNA immunoprecipitation (RIP) assays: RIP assays from 1×10^7 formaldehyde cross-linked INS-1 cells were performed as described (75). Isotype-matched antibodies against eIF5A and the FLAG-M2 epitope (for control immunoprecipitations) were used at a final dilution of 1:100. Immunoprecipitated RNA was reversed transcribed and subjected to quantitative PCR amplification for selected genes as described above. All data represent the average of triplicate determinations from at least 3 independent RIP assays.

[2] = IL-1β, TNFα, IFNγ for 4 h, compared to controls

Molecule	GSCa of isolated islets after cytokines (C57BL/6J mouse islets; [2])	GSIS of isolated islets after cytokines (C57BL/6J mouse islets; [2])	glucose-stimulated insulin secretion (GSIS) of isolated islets (C57BL/6J mouse islets; islets from siRNA-injected mice, no cytokines)	glucose-stimulated Ca2+ mobilization (GSCa) of isolated islets (C57BL/6J mouse islets; islets from siRNA-injected mice, no cytokines, compared to controls)	iNOS protein levels in human islets (iNOS)	co-precipitation of mRNA with eIF5A antibody [1]
5′-AACGGAAUGACUUCCAGCUGA-3′ (siSTABLE modification, further chemistry not given here) [si-eIF5A]	significant preservation	significant preservation	significant improvement in islet response to glucose stimulation	increased		
NCCCCCCCN=C(N)N [GC7]					dose-dependent inhibition	no co-precipitation of any mRNA species
